One assay has as its target Rat Liver Pao (Rattus norvegicus, UniProt A0A8I6AEP5). As to the kind of experiment: In vitro inhibition of partially purified rat liver polyamine oxidase (PAO). Format: biochemical. The protocol:
Polyamine Oxidase Inhibition^1
Rat liver polyamine oxidase was purified by the procedure of Holtta, E.
step. Ki and .tau.50 were determined using the partially

A further assay has as its system PAO. As to the kind of experiment: PAO activity ex vivo in the liver of mice dosed i.p. 24 hours before. Particulars: mouse liver, Dose 1.0 mg/kg i.p., control 18.7. From the text:
MEASUREMENT OF PAO ACTIVITIES IN MOUSE TISSUES
Chim. Biophys. Acta 38: 69-76.

For another assay, the system named is Eimeria spp. The conditions noted are these: cited from earlier work.
Assay [1] has as its system Plasmodia spp. The conditions noted are these: liver of infected mice; cited from earlier work.
The test system of the next assay is Pneumocystis carinii. Particulars: cited from earlier work.
A further assay deals with ODC. Particulars: cited from earlier work.
Another assay deals with P. berghei. The conditions noted are these: cited from earlier work.
In assay [2] the test system is Plasmodia spp. Particulars: cited from earlier work.
Assay [3] has as its system Plasmodia spp. Particulars: in culture in vitro; cited from earlier work.
A further assay concerns T. b. brucei. The conditions noted are these: in mice; cited from earlier work.
The next assay relates to P. gallinaceum. The conditions noted are these: P. gallinaceum in chickens; cited from earlier work.
The subject of the next assay is ODC and AdoMetDC. Particulars: cited from earlier work.
The test system of a further assay is natural polyamines. Particulars: exposure of cells; cited from earlier work.
A further assay relates to L1210 cells. The conditions noted are these: cited from earlier work.

The structures appear in SMILES notation.

Chain of Rat Liver Pao (A0A8I6AEP5 62-564): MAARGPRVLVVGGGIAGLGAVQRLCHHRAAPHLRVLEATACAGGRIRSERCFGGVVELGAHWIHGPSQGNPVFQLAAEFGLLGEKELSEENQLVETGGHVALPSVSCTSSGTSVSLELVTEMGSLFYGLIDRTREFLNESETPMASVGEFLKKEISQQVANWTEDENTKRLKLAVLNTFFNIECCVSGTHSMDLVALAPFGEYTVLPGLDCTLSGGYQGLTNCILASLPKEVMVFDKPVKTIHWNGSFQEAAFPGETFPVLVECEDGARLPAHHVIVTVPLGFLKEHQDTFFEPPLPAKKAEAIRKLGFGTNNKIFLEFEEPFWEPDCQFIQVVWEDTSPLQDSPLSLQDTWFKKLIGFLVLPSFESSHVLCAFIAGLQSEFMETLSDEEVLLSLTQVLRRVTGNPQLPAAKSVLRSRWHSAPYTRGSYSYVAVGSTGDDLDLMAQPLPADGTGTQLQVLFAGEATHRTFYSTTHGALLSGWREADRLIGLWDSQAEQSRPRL

As to `C=C=CCNCCCNCCCNCC=C=C` [Compound 46], the “.tau.50” value at Rat Liver Pao came out at 4.0 min. For the same compound, the “PAO Activity” value in the assay with PAO is reported as 1.0 p/mol/min/mg protein.

Consider `C=C=CCNCCCNCCCCCCCCNCCCNCC=C=C` [Compound 51], for which the “.tau.50” value at Rat Liver Pao was determined as 2.0 min. For the same compound, in the assay with PAO, the “PAO Activity” value came out at 4.1 p/mol/min/mg protein.

Turning to `NCCC[C@](N)(C(=O)O)C(F)F` [DFMO, α-difluoromethylornithine], the “sensitivity of Eimeria spp.” value in the assay on Eimeria spp. was “sensitive”. Moreover, in the assay with Plasmodia spp. [1], the “exoerythrocytic schizogony in the liver” value was “inhibit the cycle in the liver of infected mice”. Also, in the assay with Pneumocystis carinii, the “sensitivity of Pneumocystis carinii” value is “sensitive”. Besides, the “inhibition of ODC” value with ODC is on record as “inhibits ODC”. Besides, the “curative effect on erythrocytic forms of malaria in vivo” value with P. berghei (P. berghei in mice) and with P. gallinaceum was “no curative effects” in each case. Besides, the “parasitemia in P. berghei infections” value in the assay on P. berghei (P. berghei infections) is “significantly reduce parasitemia”. Besides, in the assay with Plasmodia spp. [2], the “sporogonous cycle in the mosquito vector” value is reported as “completely inhibit the sporogonous cycle in the mosquito vector”. Moreover, the “erythrocytic replication (schizogony)” value in the assay with Plasmodia spp. [3] is reported as “block erythrocytic replication (schizogony) in culture in vitro”. Further, the “cure of acute infections of T. b. brucei” value in the assay with T. b. brucei is “totally cure acute infections”.

Consider `CCNCCCCNCCCNCC` [N^1,N^8 -bis(ethyl)spermidine], for which the “repression of ODC and AdoMetDC” value with ODC and AdoMetDC was “mimic the action of their parent polyamines in the repression of ODC and AdoMetDC”. The “depletion of the natural polyamines” value in the assay with natural polyamines was “leads to the depletion of the natural polyamines”. Moreover, the “support of growth of L1210 cells” value with L1210 cells is listed as “will not support growth of L1210 cells”.

Turning to `CCNCCCNCCCCNCCCNCC` [N^1,N^12 -bis(ethyl)spermine], the “repression of ODC and AdoMetDC” value in the assay with ODC and AdoMetDC is “mimic the action of their parent polyamines in the repression of ODC and AdoMetDC”. In the assay on natural polyamines, the “depletion of the natural polyamines” value is on record as “leads to the depletion of the natural polyamines”. Moreover, the “support of growth of L1210 cells” value in the assay on L1210 cells is reported as “will not support growth of L1210 cells”.

Source of the values: patent US4935449A, “N-2,3-butadienyl tri- and tetraaminoalkane derivatives” (Merrell Dow Pharmaceuticals Inc., priority 1988, dated 1990).
